The source of these data is patent US5736578A, “Ethylamido fluorenes and improved method of making same” (Bristol-Myers Squibb Company, priority 1996, dated 1998).

One series addresses T1, human ML1A (Homo sapiens, UniProt P48039).
T1 construct: expressed in transfected cells; pcDNA3; membrane homogenates
Nature of the series: Melatonergic binding (2-[125I]-iodomelatonin displacement, NIH 3T3 cell membranes). The settings on record: human ML1A in NIH 3T3 membranes; 100 pM 2-[125I]-iodomelatonin; 37° C., 1 hour; read-out: Binding Affinity (IC50). The procedure:
Measurement of Melatonergic Binding
(a) 50 mM Tris buffer containing 12.5 mM MgCl2 and 2 mM EDTA (pH 7.4 at 37° C.).
(b) Wash buffer: 20 mM Tris base containing 2 mM MgCl2 (pH 7.4 at room temperature).
(d) 2-[^125 I]-iodomelatonin (100 pM final concn.). Source: NEN
2.Membrane preparation. The receptor cDNA (human ML1A) was subcloned into pcDNA3 and introduced into NIH 3T3 cells using Lipofectamine. Transformed NIH 3T3 cells resistant to geneticin were isolated and single colonies expressing high levels of 2-[^125 I]-iodomelatonin binding were isolated and characterized. Cell pellets were frozen at -80° C. for further use. For preparing membrane homogenates, pellets are thawed on ice, and resuspended in TME buffer, Tris base, MgCl2, EDTA (pH 7.4 at 37° C.), supplemented with aprotinin, leupeptin, and phenylmethlysulfonylfluoride. The cells were then homogenized using a dounce homogenizer, and centrifuged. The resulting pellet was resuspended with a dounce homogenizer in TME and frozen. On the day of assay, the small aliquot was thawed on ice and resuspended in TME buffer.
3. Incubation: 37° C. for 1 hour. Reaction is terminated by filtration.
The procedure was based on that disclosed in: Reppert, S. M., Weaver, D. R., and Ebisawa, R. (1994), Neuron, 13, 1177-1185 (1994).

Series [1] has as its system Cyclic AMP Accumulation in Intact Cells: Melatonin. The series can be described thus: Functional activity: cyclic AMP accumulation in intact cells (forskolin-stimulated). The settings on record: 10 min, read-out: I.A. (Intrinsic Activity) = Emax (experimental compound)/Emax (melatonin). In kind it is cell-based. The procedure: Measurement of Functional Activity
Cyclic AMP Accumulation in Intact Cells: Melatonin
The media was removed from cell flask and washed with Hank's salt solution or PBS, as appropriate. The cells were detached from flask. Enough media was added so that the concentration of cells is 4×10^5 /ml when counted with a hemocytometer. Dialyzed or heat inactivated fetal bovine serum (FBS) was used in the media when plating the cells. 1 ml of cell suspension was put into each well, then 2 mls of media. Cells were incubated overnight.
1. Stock solution: plain media (no serum or additives)+20 mM HEPES.
2. IBMX solution: media/HEPES+1 mM IBMX.
3. Assay solution: 90% stock solution+10% IBMX solution.
Each well gets 3 mls of assay solution for preincubation and 3 mls for the assay. Each test condition is done in triplicate.
a) Basal assay solution+DMSO
b) Forskolin stimulation: 10 μM final concentration.
All tests were done in triplicate at 37° C. Plates with cells were kept in a shallow 37° C. water bath throughout the reaction. Media was taken from the wells and 3 ml of preincubation media was added. After 10 min, that solution was removed and 3 mls of drug solution was added. After 10 min, the media was removed and reaction stopped with HCl. Samples set for at least an hour at room temperature. 1 ml from each dish was taken and put into a microfuge tube and spun to remove floating cells. After dilution to 1:100 for RIA, a radioimmuno-assay was done.

For series [2] the following is noted: in words; cited from earlier work.
Series [3] relates to jet-lag related sleep disturbances. The settings on record: humans; in words; cited from earlier work.
The next series has as its system circadian rhythms. The settings on record: rats; in words; cited from earlier work.

As usually defined, the IC50 is the concentration needed to halve the response being measured.

Some results are limits rather than exact numbers.

T1 sequence (P48039 whole entry): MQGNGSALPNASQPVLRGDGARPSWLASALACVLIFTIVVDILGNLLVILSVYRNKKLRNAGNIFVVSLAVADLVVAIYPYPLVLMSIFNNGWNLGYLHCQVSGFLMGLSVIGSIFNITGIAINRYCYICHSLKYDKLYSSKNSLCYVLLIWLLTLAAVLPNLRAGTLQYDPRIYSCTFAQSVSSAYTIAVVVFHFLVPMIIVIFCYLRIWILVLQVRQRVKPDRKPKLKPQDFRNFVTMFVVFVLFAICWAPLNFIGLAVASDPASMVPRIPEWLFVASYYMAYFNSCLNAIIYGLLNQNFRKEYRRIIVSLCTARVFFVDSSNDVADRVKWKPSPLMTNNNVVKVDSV

Consider `COc1ccc2c(c1)C(CCCNC(C)=O)c1cc(OC)ccc1-2` [Example 20, N-[3-(2,7-dimethoxyfluoren-9-yl)prop-1-yl]acetamide], for which the 50% inhibitory concentration (IC50) at human ML1A was under 100 nM.

Take `CCCC(=O)NCCC1c2cc(OC)ccc2-c2ccc(OC)cc21` [Example 10, N-[2-(2,7-dimethoxyfluoren-9-yl)ethyl]butanamide]: the Emax in series [1] worked out at 115%.

As for `C=CC(=O)NCCC1c2ccccc2-c2ccc(OC)cc21` (centres unmarked) [Example 11, N-[2-(2-methoxyfluoren-9-yl)ethyl]-2-propenamide], the IC50 at human ML1A is under 100 nM.

As to `COc1ccc2c(c1)C(CCNC(=O)C(C)(C)C)c1cc(OC)ccc1-2` [Example 14, N-[2-(2,7-dimethoxyfluoren-9-yl)ethyl]-2,2-dimethyl propanamide], the IC50 on human ML1A is under 500 nM.

For the molecule `CCOc1ccc2c(c1)C(CCNC(=O)CC)c1cc(OC)ccc1-2` (centres unmarked) [Example 29, N-[2-(2-ethoxy-7-methoxyfluoren-9-yl)-ethyl]propanamide], the concentration for half-maximal inhibition (IC50) at human ML1A is under 100 nM.

Take `COc1ccc2c(c1)C(CCNC(=O)C1CCC1)c1cc(OC)ccc1-2` [Example 13, N-[2-(2,7-dimethoxyfluoren-9-yl)ethyl]cyclobutane carboxamide]: at human ML1A, the IC50 is under 10 nM.

Take `COc1ccc2c(c1)C(CCNC(=O)C1CC1)c1cc(OC)ccc1-2` [Example 7, N-[2-(2,7-dimethoxyfluoren-9-yl)ethyl]cyclopropane carboxamide]: the Emax in series [1] was 102%.

Consider `COc1ccc2[nH]cc(CCNC(C)=O)c2c1` [melatonin, N-acetyl-5-methoxytryptamine], for which the oral bioavailability result in series [2] is “often low and variable”. For the same molecule, the “treatment of jet-lag related sleep disturbances” value in series [3] was “used to treat jet-lag related sleep disturbances”. In addition, in the series with circadian rhythms, the “effect of exogenous administration on circadian rhythms” value is on record as “synchronize circadian rhythms in rats”.

On to `CCC(=O)NCCC1c2cc(OC)ccc2-c2ccc(OC)cc21` [Example 5, N-[2-(2,7-dimethoxyfluoren-9-yl)ethyl]propanamide], for which the Emax in series [1] was 114%. Besides, the IC50 at human ML1A was under 10 nM.

For `COCC(=O)NCCC1c2cc(OC)ccc2-c2ccc(OC)cc21` [Example 9, N-[2-(2,7-dimethoxyfluoren-9-yl)ethyl]methoxyacetamide], on human ML1A, the IC50 is under 100 nM.

Turning to `CCCC(=O)NCCC1c2ccccc2-c2ccc(OC)cc21` (centres unmarked) [Example 6, N-[2-(2-methoxyfluoren-9-yl)ethyl]butanamide], the 50% inhibitory concentration (IC50) at human ML1A is under 100 nM.
